Assay results as given in US7727960B2, “C5a receptor antagonists” (Jerini AG, priority 2003, dated 2010).
Like-named read-outs stand apart in the source and are kept apart here. Positions of bridges follow the written chain, without caps; N, C: chain ends. Non-standard residues stand in square brackets, D forms with d. Residues, ends and D or L forms follow the SMILES beside them. No end group written: not given here. *: point of attachment. 2‑Acetamido‑1‑Methyl‑Glucuronyl = 2-Acetamido-1-methyl-glucuronyl N-terminal group; Phe(4-guanidino) = N=C(N)Nc1ccc(C[C@H](N)C(=O)O)cc1; X3 = O=C1CNC(=O)N1[C@@H](Cc1ccccc1)C(=O)*; X4 = O=C1CCC(=O)N1[C@@H](Cc1ccccc1)C(=O)*; Phe(4-Me) = Cc1ccc(C[C@H](N)C(=O)O)cc1; 2Nal = N[C@@H](Cc1ccc2ccccc2c1)C(=O)O; His(τ-Me) = Cn1cnc(C[C@H](N)C(=O)O)c1; Acetyl(4-pyridyl) = O=C(Cc1ccncc1)*; Bta = N[C@@H](Cc1csc2ccccc12)C(=O)O; d(hLeu) = CC(C)CC[C@@H](N)C(=O)O; Cha = N[C@@H](CC1CCCCC1)C(=O)O; dCha = N[C@H](CC1CCCCC1)C(=O)O; Chg = N[C@H](C(=O)O)C1CCCCC1; dNle = CCCC[C@@H](N)C(=O)O; Nle = CCCC[C@H](N)C(=O)O; Orn = NCCC[C@H](N)C(=O)O; Pra = C#CC[C@H](N)C(=O)O; Nva = CCC[C@H](N)C(=O)O

T1: human C5aR (CD88) (Homo sapiens, UniProt P21730)
T1 construct: expressed in transfected cells; host or cells: rat basophilic leukemia cells (RBL)
T1 sequence (P21730 1-350): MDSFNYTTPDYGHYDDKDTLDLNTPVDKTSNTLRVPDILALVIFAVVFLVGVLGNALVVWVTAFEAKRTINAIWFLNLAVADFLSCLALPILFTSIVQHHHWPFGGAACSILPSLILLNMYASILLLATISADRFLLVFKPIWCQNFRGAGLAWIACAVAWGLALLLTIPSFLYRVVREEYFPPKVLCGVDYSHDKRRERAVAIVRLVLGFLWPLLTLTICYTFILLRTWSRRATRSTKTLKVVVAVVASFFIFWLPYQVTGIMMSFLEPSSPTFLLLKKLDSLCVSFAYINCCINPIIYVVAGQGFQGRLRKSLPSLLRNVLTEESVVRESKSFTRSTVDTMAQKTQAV

T2: human C5aR (CD88) (human, UniProt P21730 1-350)
T2 sequence (looked up): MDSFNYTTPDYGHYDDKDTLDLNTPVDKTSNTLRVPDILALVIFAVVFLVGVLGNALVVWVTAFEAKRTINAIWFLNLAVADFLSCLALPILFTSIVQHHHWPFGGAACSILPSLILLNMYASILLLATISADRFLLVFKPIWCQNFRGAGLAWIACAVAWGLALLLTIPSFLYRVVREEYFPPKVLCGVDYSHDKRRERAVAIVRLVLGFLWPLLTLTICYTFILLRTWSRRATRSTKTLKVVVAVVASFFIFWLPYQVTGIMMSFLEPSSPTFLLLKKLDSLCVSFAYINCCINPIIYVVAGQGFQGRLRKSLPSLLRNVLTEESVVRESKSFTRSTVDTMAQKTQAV


Assays:
[1] = target: T1, human C5aR (CD88); assay: Determination of the IC50 value in an enzyme release assay (functional assay, antagonistic activity); assay type: cell-based; conditions: for IC50-value compared to compound 40 (in words): arginine replaced by hydrophobic substitutions; for IC50: antagonistic activity, enzyme release assay in RBL cells expressing human C5aR (CD88), read-out: activity (group)
[2] = target: T2, human C5aR (CD88); assay: cell-based or functional assay
[3] = noteworthy = IC50 of less than 200 nM in the functional assay

Row | Molecule | inhibitory activity (in words) [1, 3] | IC50 activity group, enzyme release assay [2] [nM] | further results
1 | Ac-Phe-[Orn-Hyp(COCH2OCH2CH2OCH2CH2OCH3)-cha-Trp-Phe] | noteworthy inhibitory activity |  | 
2 | CCC[C@@H]1NC(=O)[C@H](Cc2c[nH]c3ccccc23)NC(=O)[C@@H](CC2CCCCC2)NC(=O)[C@@H]2CCCN2C(=O)[C@@H](NC(=O)[C@H](Cc2ccccc2)NC(C)=O)CCCNC1=O [Compound 31, Ac-Phe-[Orn-Pro-cha-Trp-Nva]] (Ac-F[Orn]P[dCha]W[Nva]; lactam 2-C) | noteworthy inhibitory activity |  | IC50-value compared to compound 40 (in words) [1]: without a significant increase of the IC50-value
3 | CC(=O)N[C@@H](C)C(=O)N[C@H]1CCCNC(=O)[C@H](CCCN=C(N)N)NC(=O)[C@H](Cc2c[nH]c3ccccc23)NC(=O)[C@@H](CC2CCCCC2)NC(=O)[C@@H]2CCCN2C1=O [Compound 45] (Ac-A[Orn]P[dCha]WR; lactam 2-C) |  |  | IC50 [1]: > 2000 nM
4 | CC(=O)N[C@@H](Cc1ccccc1)C(=O)N[C@H]1CCCNC(=O)[C@H](Cc2ccc3ccccc3c2)NC(=O)[C@H](Cc2c[nH]c3ccccc23)NC(=O)[C@@H](CC2CCCCC2)NC(=O)[C@@H]2CCCN2C1=O [Compound 37, Ac-Phe-[Orn-Pro-cha-Trp-2Ni]] (Ac-F[Orn]P[dCha]W[2Nal]; lactam 2-C) | noteworthy inhibitory activity |  | IC50-value compared to compound 40 (in words) [1]: without a significant increase of the IC50-value
5 | CCSC[C@@H]1NC(=O)[C@H](Cc2c[nH]c3ccccc23)NC(=O)[C@@H](CC2CCCCC2)NC(=O)[C@@H]2CCCN2C(=O)[C@@H](NC(=O)[C@H](Cc2ccccc2)NC(C)=O)CCCNC1=O [Compound 34, Ac-Phe-[Orn-Pro-cha-Trp-Ebd]] (Ac-F[Orn]P[dCha]WC(Et); lactam 2-C) | noteworthy inhibitory activity |  | IC50-value compared to compound 40 (in words) [1]: without a significant increase of the IC50-value
6 | CC(=O)N[C@@H](Cc1ccccc1)C(=O)N[C@H]1CCCNC(=O)[C@H](Cc2ccc(C)cc2)NC(=O)[C@H](Cc2c[nH]c3ccccc23)NC(=O)[C@@H](CC2CCCCC2)NC(=O)[C@@H]2CCCN2C1=O [Compound 36, Ac-Phe-[Orn-Pro-cha-Trp-Pmf]] (Ac-F[Orn]P[dCha]W[Phe(4-Me)]; lactam 2-C) | noteworthy inhibitory activity |  | IC50-value compared to compound 40 (in words) [1]: without a significant increase of the IC50-value
7 | NCCC[C@H](NC(=O)[C@H](Cc1ccccc1)N1C(=O)CCC1=O)C(=O)N1CCC[C@H]1C(=O)N[C@H](CC1CCCCC1)C(=O)N[C@@H](Cc1csc2ccccc12)C(=O)N[C@@H](Cc1ccccc1)C(N)=O [Compound 133, (—CO—CH2—CH2—CO—)-Phe-Orn-Pro-cha-Bta-Phe-NH2] (X4-[Orn]P[dCha][Bta]F-NH2) |  |  | IC50 [1]: 200 to 2000 nM
8 | Ac-Phe-[Orn-Hyp(CONHCH2COH(OH)CH2OH)-cha-Trp-Phe] |  |  | inhibitory activity (in words) [1]: noteworthy inhibitory activity
9 | C#CC[C@@H]1NC(=O)[C@H](Cc2c[nH]c3ccccc23)NC(=O)[C@@H](CC2CCCCC2)NC(=O)[C@@H]2CCCN2C(=O)[C@@H](NC(=O)[C@H](Cc2ccccc2)NC(C)=O)CCCNC1=O [Compound 35, Ac-Phe-[Orn-Pro-cha-Trp-Eag]] (Ac-F[Orn]P[dCha]W[Pra]; lactam 2-C) | noteworthy inhibitory activity |  | IC50-value compared to compound 40 (in words) [1]: without a significant increase of the IC50-value
10 | Ac-Phe-[Orn-Ser-cha-Trp-Phe] | noteworthy inhibitory activity |  | 
11 | CSCC[C@@H]1NC(=O)[C@H](Cc2c[nH]c3ccccc23)NC(=O)[C@@H](CC2CCCCC2)NC(=O)[C@@H]2CCCN2C(=O)[C@@H](NC(=O)[C@H](Cc2ccccc2)NC(C)=O)CCCNC1=O [Compound 29, Ac-Phe-[Orn-Pro-cha-Trp-Met]] (Ac-F[Orn]P[dCha]WM; lactam 2-C) | noteworthy inhibitory activity |  | IC50-value compared to compound 40 (in words) [1]: without a significant increase of the IC50-value
12 | CC(=O)N[C@@H](Cc1ccccc1)C(=O)N[C@H]1CCCNC(=O)[C@H](Cc2cn(C)cn2)NC(=O)[C@H](Cc2c[nH]c3ccccc23)NC(=O)[C@@H](CC2CCCCC2)NC(=O)[C@@H]2CCCN2C1=O [Compound 20, Ac-Phe-[Orn-Pro-cha-Trp-Ecr]] (Ac-F[Orn]P[dCha]W[His(τ-Me)]; lactam 2-C) | noteworthy inhibitory activity |  | 
13 | NCCC[C@H](NC(=O)[C@H](Cc1ccccc1)N1C(=O)CNC1=O)C(=O)N1CCC[C@H]1C(=O)N[C@H](CC1CCCCC1)C(=O)N[C@@H](Cc1csc2ccccc12)C(=O)N[C@@H](Cc1ccccc1)C(N)=O [Compound 130, (—CO—CH2—NH—CO—)-Phe-Orn-Pro-cha-Bta-Phe-NH2] (X3-[Orn]P[dCha][Bta]F-NH2) |  |  | IC50 [1]: 50 to 200 nM
14 | Ac-F[Orn]P[dCha]WA (lactam (positions not given here); not fully specified (bridges); printed as Ac-Phe-[Orn-Pro-cha-Trp-Ala]) [Ac-Phe-[Orn-Pro-cha-Trp-Ala]] |  | > 2000 | 
15 | Ac-F[Orn]P[dCha]W[Phe(4-guanidino)] (lactam (positions not given here); not fully specified (bridges); printed as Ac-Phe-[Orn-Pro-cha-Trp-Guf]) [Ac-Phe-[Orn-Pro-cha-Trp-Guf]] |  | ≤ 2000 | 
16 | {Ph‑CH(OH)‑CH2‑CO}-[Orn]P[dCha]W[Nle] (lactam 1-C) [Ph-CH(OH)-CH2-CO-[Orn-Pro-cha-Trp-Nle]] |  | ≤ 50 | 
17 | FXPXWX (not fully specified; Ac-; Orn2; cha4 (D); Cit6; cyclic [2-6]) [Ac-Phe-[Orn-Pro-cha-Trp-Cit]] |  | ≤ 2000 | 
18 | {2‑Acetamido‑1‑Methyl‑Glucuronyl}-F[Orn]P[dCha]W[Nle] (lactam 2-C) [X-Phe-[Orn-Pro-cha-Trp-Nle]; X = 2-Acetamido-1-Methyl-Glucuronyl] |  | ≤ 50 | 
19 | FXPXWX (not fully specified; Ac-; Orn2; cha4 (D); Har6; cyclic [2-6]) [Ac-Phe-[Orn-Pro-cha-Trp-Har]] |  | ≤ 2000 | 
20 | Ac-F[Orn]P[d(hLeu)]W[Nle] (lactam 2-C (inferred)) [Ac-Phe-[Orn-Pro-hle-Trp-Nle]] |  | ≤ 50 | 
21 | Ac-F[Orn]P[dCha]W[Cha] (lactam (positions not given here); not fully specified (bridges); printed as Ac-Phe-[Orn-Pro-cha-Trp-Cha]) [Ac-Phe-[Orn-Pro-cha-Trp-Cha]] |  | ≤ 200 | 
22 | Ac-F[Orn]P[dCha]WF (lactam (positions not given here); not fully specified (bridges); printed as Ac-Phe-[Orn-Pro-cha-Trp-Phe]) [Ac-Phe-[Orn-Pro-cha-Trp-Phe]] |  | ≤ 50 | 
23 | Ac-F[Orn]P[dCha]W[dNle] (lactam 2-C (inferred)) [Ac-Phe-[Orn-Pro-cha-Trp-nle]] |  | ≤ 200 | 
24 | {Acetyl(4-pyridyl)}-F[Orn]P[dCha]W[Nle] (lactam 2-C (inferred)) [Fbi-Phe-[Orn-Pro-cha-Trp-Nle]] |  | ≤ 200 | 
25 | Ac-F[Orn]P[dCha]WY (lactam (positions not given here); not fully specified (bridges); printed as Ac-Phe-[Orn-Pro-cha-Trp-Tyr]) [Ac-Phe-[Orn-Pro-cha-Trp-Tyr]] |  | ≤ 50 | 
26 | Ac-F[Orn]P[dCha]WL (lactam (positions not given here); not fully specified (bridges); printed as Ac-Phe-[Orn-Pro-cha-Trp-Leu]) [Ac-Phe-[Orn-Pro-cha-Trp-Leu]] |  | ≤ 200 | 
27 | {Ph‑CH2}-[Orn]P[dCha]WF (lactam 1-C) [Ph-CH2-[Orn-Pro-cha-Trp-Phe]] |  | ≤ 50 | 
28 | {Ph‑CH2}-[Orn]P[dCha]W[Nle] (lactam 1-C) [Ph-CH2-[Orn-Pro-cha-Trp-Nle]] |  | ≤ 50 | 
29 | Ac-F[Orn]P[dCha]W[Chg] (lactam (positions not given here); not fully specified (bridges); printed as Ac-Phe-[Orn-Pro-cha-Trp-Chg]) [Ac-Phe-[Orn-Pro-cha-Trp-Chg]] |  | ≤ 200 | 
30 | FXPXWR (not fully specified; Ac-; Orn2; cha4 (D); Arg(CH2CH2)6; cyclic [2-6]) [Ac-Phe-[Orn-Pro-cha-Trp-Arg(CH2CH2)]] |  | ≤ 2000 | 
